Columns and labels:
hangover = test: clinical self-experiment on hangover symptoms after alcohol consumption; type: in vivo, human; details: one inventor on themself; 50 mg orally (capsule) just prior to drinking, 50 mg during, 50 mg next morning; total 150 mg in fourteen hours
Source text: The invention is based, in part, on a clinical experiment that an inventor of the invention described herein conducted on themself using SELBEX® (geranylgeranylacetone). On one occasion in the evening, they consumed an excessive amount of alcoholic beverages and awoke the following morning experiencing abdominal discomfort, nausea, fatigue, and headache. The normal measures that they had taken in the past to ameliorate hangover provided little relief. They decided that on the next occasion on which they would be drinking alcoholic beverages, they would ingest SELBEX® (geranylgeranylacetone) to determine whether it provided relief. Thus, on a subsequent evening, just prior to the drinking of alcoholic beverages, they ingested 50 mg of SELBEX® (geranylgeranylacetone) orally, in the form of a capsule marketed commercially by Eisai Co., Ltd. During the course of the evening, as they continued drinking alcoholic beverages, they ingested an additional 50 mg of SELBEX® (geranylgeranylacetone) orally. The next morning when they awoke, they ingested an additional 50 mg of SELBEX® (geranylgeranylacetone), bringing the total ingested during a fourteen hour period to 150 mg.

[1] = cited from earlier work
[2] = cited from earlier work; remark: listed apart in the source

In the case of `CC(=O)CC/C=C(\C)CC/C=C(\C)CC/C=C(\C)CCC=C(C)C` [SELBEX® (geranylgeranylacetone), 3:2 (5E:5Z) geometrical mixture of (9E,13E)-6,10,14,18-tetramethyl-5,9,13,17-nonadecatetraen-2-one], the “symptoms of hangover (abdominal discomfort, nausea, fatigue, and headache)” value (hangover) is listed as “either abolished or markedly alleviated”, the “miscibility with organic solvents” value ([1]; methanol, ethanol, acetone, chloroform, and hexane) is listed as “miscible” and the solubility in water ([1]; water) is listed as “practically insoluble”. The stability to air [2] was “affected by air”.

Reference: patent publication US7087649B2, “Methods for preventing and treating diseases and conditions associated with cellular stress” (Eisai Co., Ltd., priority 2001, dated 2006)
